Experiments:
[1] = test system: VRE, designated HAM-1; conditions: commonly encountered VRE; cited from earlier work
[2] = test system: EMRSA 15 strains; conditions: local EMRSA 15 strains, typically; cited from earlier work
[3] = test system: S. aureus NCTC 6571; test: Disc sensitivity testing (Stokes), reference strain; format: cell-based, Staphylococcus aureus; conditions: CLX
Procedure: All routine sensitivity testing was performed using a standard disc diffusion technique (Stokes) performed on Unipath (Oxoid) Diagnostic Sensitivity Test agar with 5% lysed horse blood.
Testing of Staphylococci--Staphylococcus aureus (Oxford strain) NCTC 6571
Inocula for test and control organisms were prepared from overnight 37° C. Unipath (Oxoid) Brain Heart Infusion broth cultures. Prom these well-mixed cultures, 2 drops ([…]) were transferred to 3 ml sterile water. This suspension was used to moisten sterile cotton tipped swabs which were then used with a rotary plater for inoculation of test plates.
The following disc sets were used for sensitivity testing:
Methicillin Sensitivity Testing
Methicillin (cloxacillin) sensitivity for Staphylococci was confirmed using a methicillin test strips (Methi-test, Medical Wire Limited--MW981) and a heavy inoculum. This was prepared by adding 5 colonies from an overnight nutrient agar plate culture 3 ml water.
For each organism, including sensitive and resistant controls, a loop was charged with the heavy inoculum suspension and streaked across a Unipath (Oxoid) Diagnostic Sensitivity Test plus 5% lysed horse blood agar plate in a single direction. A methicillin strip was then placed on the surface of the plate at right angles to the inocula. […]

[4] = test system: bacteria and fungi; test: Antimicrobial activity (general statements); format: cell-based
[5] = test system: TNF production; test: TNF production in human blood / antibiotic-treated cultures; format: cell-based
From the text: Taurolidine and/or Taurultam prevent over-production of cytokines in the patient by monocytes of the blood.

[6] = test system: bacteria and fungi; conditions: known antimicrobial substances; cited from earlier work
[7] = cited from earlier work
[8] = test system: Staph. app.; test: Resistance to Vancomycin (30 μg/Disc), Staph. app.; format: cell-based
Procedure: ^1 VE30: Resistance to Vancomycin (30 μg/Disc)

CC1(C)S[C@@H]2[C@H](NC(=O)[C@H](N)c3ccccc3)C(=O)N2[C@H]1C(=O)O [Ampicillin]
in vitro resistance of strain [1]: resistance in vitro

O=C(O)c1cn(C2CC2)c2cc(N3CCNCC3)c(F)cc2c1=O [Ciprofloxacin]
in vitro resistance of strain [2]: resistant in vitro

CCC[C@@H]1C[C@@H](C(=O)N[C@@H]([C@H]2O[C@H](SC)[C@H](O)[C@@H](O)[C@H]2O)[C@H](C)Cl)N(C)C1 [Clindamycin, clindamycin]
in vitro resistance of strain [2]: resistant in vitro

Cc1onc(-c2ccccc2Cl)c1C(=O)N[C@@H]1C(=O)N2[C@@H]1SC(C)(C)[C@@H]2C(=O)O [Cloxacillin]
disc sensitivity, methicillin (cloxacillin) [3]: S (Test zones <5 mm smaller than the control zone are SENSITIVE) | in vitro resistance of strain [2]: resistant in vitro

CC[C@H]1OC(=O)[C@H](C)[C@@H](O[C@H]2C[C@@](C)(OC)[C@@H](O)[C@H](C)O2)[C@H](C)[C@@H](O[C@@H]2O[C@H](C)C[C@H](N(C)C)[C@H]2O)[C@](C)(O)C[C@@H](C)C(=O)[C@H](C)[C@@H](O)[C@]1(C)O [Erythromycin]
in vitro resistance of strain [2]: resistant in vitro | in vitro resistance of strain [1]: resistance in vitro

COc1cccc(OC)c1C(=O)N[C@@H]1C(=O)N2[C@@H]1SC(C)(C)[C@@H]2C(=O)O [Methicillin, methicillin]
in vitro resistance of strain [2]: resistant in vitro

C/C(=C\C(=O)OCCCCCCCCC(=O)O)C[C@@H]1OC[C@H](C[C@@H]2O[C@H]2[C@@H](C)[C@H](C)O)[C@@H](O)[C@H]1O [Mupirocin]
in vitro resistance of strain [2]: resistant in vitro

O=S1(=O)CCNCN1 [Taurultam]
rate of bacterial killing [4]: kills bacteria slowly | resistance development [4]: no resistance development by microbes has been observed | TNF production ([5]; added to antibiotic-treated cultures): prevents a rise in TNF production | neutralization of released endotoxins ([5]; antibiotic-treated cultures): nearly complete neutralization of released endotoxins | antimicrobial spectrum [6]: broad-spectrum activity against aerobic and anaerobic bacteria, mycobacteria and fungi | half-life in vivo [7]: short half-life in vivo

CN[C@H](CC(C)C)C(=O)N[C@H]1C(=O)N[C@@H](CC(N)=O)C(=O)N[C@H]2C(=O)N[C@H]3C(=O)N[C@H](C(=O)N[C@H](C(=O)O)c4cc(O)cc(O)c4-c4cc3ccc4O)[C@H](O)c3ccc(c(Cl)c3)Oc3cc2cc(c3O[C@@H]2O[C@H](CO)[C@@H](O)[C@H](O)[C@H]2O[C@H]2C[C@](C)(N)[C@H](O)[C@H](C)O2)Oc2ccc(cc2Cl)[C@H]1O [Vancomycin]
VE30: Resistance to Vancomycin [8]: S | in vitro resistance of strain [1]: resistance in vitro

Gentamicin
in vitro resistance of strain [1]: high level gentamicin resistance

Teicoplanin
in vitro resistance of strain [1]: resistance in vitro
